According to US20130123264A1, “COMPOSITIONS AND METHODS FOR TREATMENT OF INFLAMMATORY BOWEL DISORDERS AND INTESTINAL CANCERS” (priority 2011, published 2013):
Converted amounts (≈) assume the structure as drawn. “Also recorded” adds a separate entry of the source.

How the values were obtained:
[1] = in vivo; cited from earlier work
[2] = test system: HCT116 colon cancer cells; experiment: cGMP content of colon cancer cells by competitive ELISA; settings: colon cancer cell lines, 2 hours incubation
DSS-induced colitis = experiment: DSS-induced murine colitis model; assay type: in vivo, mouse
Description: FIG. 20A is a line graph of days of treatment versus disease activity index (DAI). […] The animal weight and stool-composition (diarrhea and bleeding) were recorded daily and are shown as disease activity index. Error bars indicate SD (n=3) and asterisks denote statistical significance (p<0.05, t-test). FIG. 20B is a line graph of proximal, mid, and distal tissue samples versus TUNEL/Crypt. Some mice were sacrificed at Day 5 with DSS for pathological analysis. Descending colons of mice treated with control (Ctrl) and Vardenafil (Vard.) were harvested and stained for apoptosis (TUNEL). Positive cells were subjected to quantification and the quantified cells were graphed. Error bars indicate SEM (n=3) and asterisks denote statistical significance (p<0.05 t-test).
Control animals were injected with PBS vehicle. After 5 days the DSS was replaced with water. Incidence and severity of diarrhea and body weight were recorded daily and combined in an index of disease severity.
The best characterized mouse model of IBD involves administration of dextran sulfate-sodium (DSS) in the drinking water, and this is toxic specifically to luminal epithelial cells of the distal colon.

[3] = in water; cited from earlier work
colon mucosa [4] = experiment: Redox stress in colon mucosa by DCF fluorescence after IP treatment; assay type: in vivo, mouse; settings: 4 h, p>0.05 by t-test (n=3)
Description: After 4 h the animals were sacrificed and the colon mucosa was harvested for analysis of redox stress using DCF fluorescence. Error bars indicate standard deviation (n=3), but p>0.05 by t-test (FIG. 15B)
(§1) Colons were removed from sacrificed animals and incubated with 20 μM DCF for 30 minutes, then homogenized and the fluorescence measured (at FITC wavelengths; 485/535 nm). Specimens were incubated directly (30 min time point), or incubated for 30 min or 90 min under standard tissue culture conditions before adding DCF for the final 30 min (60 and 120 min time points).

CD1 mouse colon explants = experiment: cGMP content of mucosa from mouse colon explants incubated in vitro (ELISA); assay type: cell-based; settings: 2 hours
Description: The cGMP levels were standardized for protein content using OD280 of the extracts. […] Error bars indicate SEM. Asterisks indicate significance relative to control (p<0.05). CD1 mouse colon explants were incubated with PDE5 inhibitors in vitro. After 2 hours, the mucosa was harvested for analysis of cGMP content by ELISA (FIG. 10A).

[5] = test system: colon mucosa of Prkg2−/− mice; experiment: Colon mucosa homeostasis after 7 days of treatment in PKG2 knockout animals; assay type: in vivo, mouse
Description: FIG. 16A is a bar graph of ileum, proximal and distal tissue versus cGMP (pmol/mg protein). […] Colon mucosa was harvested 3 hrs later for analysis of cGMP content with ELISA kit. cGMP level was measured relative to total protein loading. […] Same WT/KO tissues were analyzed for apoptosis (TUNEL). Error bars indicate SEM and asterisks show significance (p<0.05).
FIGS. 17A, 17B, 17C, and 17D are line graphs of ascending, trans, and descending tissue samples versus goblet cells/crypt (17A and B) or CgA/crypt (17C and D). […] Error bars show SEM, N>3, *p<0.05, by two-tailed t-test.
FIGS. 14A-14C show quantification of mature goblet cells in the ascending (A) and transverse colon (B) of wild type and PKG2 knockout animals. […] The increase in goblet cells observed in the wild type animals was not observed in the PKG2-deficient animals, which indicates the involvement of PKG2 in this process.

colon mucosa [6] = experiment: cGMP content of colon mucosa after intraperitoneal injection (ELISA); assay type: in vivo, mouse
Description: The cGMP levels were standardized for protein content using OD280 of the extracts. […] Error bars indicate SEM. Asterisks indicate significance relative to control (p<0.05). […] FIG. 16A is a bar graph of ileum, proximal and distal tissue versus cGMP (pmol/mg protein). Mice were treated by intraperitoneal injection with PBS in vehicle (ctrl) or Vardenafil in vehicle (Vard.) (equivalence to human dose based on body weight). Colon mucosa was harvested 3 hrs later for analysis of cGMP content with ELISA kit. cGMP level was measured relative to total protein loading. […] Same WT/KO tissues were analyzed for apoptosis (TUNEL). Error bars indicate SEM and asterisks show significance (p<0.05). […] The mice were sacrificed 4 hours later and colon mucosa was harvested for analysis of cGMP content by ELISA. The cGMP levels were standardized for protein content using OD280 of the extracts. The error bars show SEM (FIG. 10B).

colon mucosa [7] = experiment: Colon mucosa homeostasis after 7 days of treatment (TUNEL, BrdU/Ki-67, goblet cell staining); assay type: in vivo, mouse; settings: wild type mice, 5 mg/kg IP b.i.d. 7 days; for epithelial cell death / apoptosis (TUNEL) in colon / mature goblet cell numbers in colon: 5 mg/kg
Excerpt: Sections were stained for apoptotic cells using TUNEL in control and treated. TUNEL positive cells were found. […] FIG. 12B Quantitation of cell proliferation in the colon mucosa by BrdU incorporation. Asterisks in FIGS. 12A and 12B show statistical significance, p<0.05 of treated relative to control.
Mature goblet cells were counted in different sections of the colon following staining with Alcian blue-periodic acid schiff. FIG. 11A: Different regions of the gut (ilium of small intestine, ascending and descending portions of the colon). FIG. 11B: Relative mature goblet cell number in different sections of the proximal colon. Asterisks indicate significance (p<0.05, n=3).
Immunohistochemistry of tissue samples from Vardenafil treated and control mice was performed.

colon explants [8] = experiment: Antioxidant gene expression in colon explants (RT-PCR, Western blotting); assay type: cell-based, mouse; settings: 100 uM, 3-4 hours
Description: Explants of proximal and distal colon from mice were treated for 3-4 hours with 100 uM 8Br-cGMP and then the mucosa was harvested for analysis of antioxidant gene and protein expression by RT-PCR and Western blotting. Blots were reprobed for b-actin expression as a loading control.
In addition to attenuating proliferation, the activation of Foxo4 can upregulate antioxidant genes. To determine whether activation of endogenous PKG could affect the expression of antioxidant genes in the colon, explants of proximal and distal colon from mice were treated for 3-4 hours with 100 uM 8Br-cGMP and then the mucosa was harvested for analysis of antioxidant genes expression by RT-PCR or Western blotting. HPRT and b-actin were used as loading controls.

colon explants [9] = experiment: Redox stress (DCF fluorescence) in colon explants; assay type: cell-based, mouse; settings: 100 uM
Description: FIG. 15A is a bar graph showing DCF fluorescence of extracts from colon explants with (cGMP, open bars) or without (control, filled bars) cGMP treatment.
as §1

JNK = experiment: JNK-P in colon explants (immunoblotting); assay type: cell-based, mouse
Description: The relative expression of DUSP10 was measured by RT-PCR in wild type and knockout mice (Prkg2+/+ and Prkg2−/−), LS174T and HT29 colon cancer cells with or without PKG2 expression, and in colon explants treated with 8BrcGMP. Mucosa from different parts of the mouse digestive tract were analyzed by immunoblotting for JNKP, total JNK, DUSP10 and PKG2. Immunoblotting of ileum and proximal colon explants with or without 8Br-cGMP treatment to activate PKG2 was also performed.

## CCCc1nc(C)c2c(=O)[nH]c(-c3cc(S(=O)(=O)N4CCN(CC)CC4)ccc3OCC)nn12 [Vardenafil, vardenafil]
[1]
  t1/2: 4 to 5 h
[2]
  intracellular cGMP levels: significantly increased
DSS-induced colitis; 5% DSS, n=4, half the untreated animals died
  death of animals: 25%
DSS-induced colitis; Day 5 with DSS
  DSS induced apoptosis (TUNEL): inhibited
DSS-induced colitis; descending colon, JNK-phospho T183/Y185
  DSS induced activation of JNK: inhibited
DSS-induced colitis; wild type mice
  DUSP10 levels in the colon mucosa: increased
[3]
  Solubility: 110 µg/mL (≈ 0.225 mM)
Colon mucosa [4]
  redox stress levels in the colon mucosa (DCF fluorescence): partly mimic antioxidant effects of exogenous cGMP; also recorded: could indeed affect redox stress levels
CD1 mouse colon explants
  cGMP levels in mouse colon explants: significantly increase
[5]; PKG2-deficient animals, 5 mg/kg IP b.i.d. 7 days
  increase in goblet cells: not observed
[5]; PKG2 knockouts, 5 mg/kg IP b.i.d. 7 days
  reduction in apoptosis: not observed
[5]; i.p. for several days
  homeostasis in Prkg2−/− animals: did not affect
Colon mucosa [6]; IP, lesser extent in terminal ileum and distal colon
  cGMP in the proximal colon epithelium: rapidly increased
Colon mucosa [6]; intraperitoneal injection, mucosa harvested 4 hours later
  intracellular cGMP levels in mouse colon mucosa: significant increase
Colon mucosa [7]
  crypt proliferation (BrdU, Ki-67) in colon: reduced
  epithelial cell death / apoptosis (TUNEL) in colon: reduction; also recorded: reduced
  mature goblet cell numbers in colon: dramatic increase
Colon mucosa [7]; listed as vardenafil
  epithelial cell death / apoptosis (TUNEL) in colon: reduced
  mature goblet cell numbers in colon: significantly increased

## Nc1nc2c(nc(Br)n2[C@@H]2O[C@@H]3COP(=O)(O)O[C@H]3[C@H]2O)c(=O)[nH]1 [8Br-cGMP]
Colon explants [8]
  antioxidant gene expression in colon explants: broad increase
Colon explants [9]
  redox stress (DCF fluorescence) in colon explants: decreased
JNK
  basal activated JNK-P levels in colon explants: decrease

## CN1CC(=O)N2[C@H](c3ccc4c(c3)OCO4)c3[nH]c4ccccc4c3C[C@@H]2C1=O [Tadalafil, tadalafil]
[1]
  t1/2: 17.5 h

## CCCc1nn(C)c2c(=O)nc(-c3cc(S(=O)(=O)N4CCN(C)CC4)ccc3OCC)[nH]c12 [Sildenafil, sildenafil]
[1]
  t1/2: 3 to 5 h
[2]
  intracellular cGMP levels: significantly increased
[3]
  Solubility: 3500 µg/mL (≈ 7.37 mM)
